From article PMC11374673, “Discovery of isoquinoline sulfonamides as allosteric gyrase inhibitors with activity against fluoroquinolone-resistant bacteria” (Nature Chemistry, 2024)
Values joined by “and” are separate entries in the source; they are usually repeats but may differ in a detail not shown here. Identical values can stand only once. “Also recorded” adds a separate entry of the source.

Tests used:
[1] = molecular target: T1, E. coli GyrA S97L/GyrB gyrase (Escherichia coli, UniProt P0AES4, S97L); test: Gyrase supercoiling inhibition, GyrA S97L variant; assay type: biochemical
T1 construct: represents the first full-length E. coli gyrase structure in complex with an intact DNA molecule; 10xHis; 2xStrep (Twin-Strep); made in house
Experimental: (§1) Of this stock solution, 27 µl was aliquoted for each reaction in 1.5 ml Eppendorf tubes and supplemented with 0.6 µl of the appropriate compound dilution or corresponding solvent with a final DMSO concentration of 2%. The reactions were started with 3 µl of enzyme (1 U for WT gyrase retrieved from Inspiralis Limited or 25–30 nM gyrase variants purified in house) in dilution buffer (50 mM Tris–HCl (pH 7.5), 100 mM KCl, 2 mM DTT, 1 mM EDTA and 50% (wt/vol) glycerol) for a final volume of 30 µl. Reactions were run at 37 °C for 30 min and stopped with the addition of 30 µl STEB buffer (40% (wt/vol) sucrose, 100 mM Tris–HCl pH 8, 100 mM EDTA, 0.5 mg ml^−1 bromophenol blue) and 30 µl of a chloroform:isoamyl alcohol solution (24:1 vol/vol). After brief vortexing and centrifugation at 2,300g for 1 min, 20 µl of the aqueous phase was loaded onto 1% (wt/vol) agarose gels in TAE (Tris–acetate […]) gel. The gels were run at 85 V for 2 h followed by staining (15 min) in 1 µg ml^−1 ethidium bromide and destaining (5–10 min) in water. DNA was visualized (602/50, UV Trans, auto optimal exposure) with a ChemiDoc MP (Bio-Rad Laboratories Inc., equipped with ImageLab Touch Software v2.0.0.27) and the percentage of supercoiled DNA relative to the total amount material per lane was determined with ImageLab 6.1 software (Bio-Rad Laboratories Inc.) or ImageJ[47] software. […]

[2] = system: E. coli BW25113; test: Bacterial cytological profiling (BCP); assay type: cell-based, Escherichia coli; design: DAPI total area / DAPI nucleoid area / DIC area / DIC curvature / DIC feret / DIC length / DIC orientation: unit not given here; conditions: for DAPI aspect ratio / DAPI circularity / DAPI nucleoid area / DAPI nucleoids / DAPI perimeter / DAPI roundness / DAPI solidity / DAPI total area / DIC area / DIC aspect ratio / DIC circularity / DIC curvature / DIC feret / DIC length / DIC orientation / DIC perimeter / DIC roundness / DIC sinuosity / DIC solidity / DIC width / Decondensation / DIC angularity / DAPI intensity / SYTOX Green intensity: BCP; for morphological phenotype: BCP microscopy, 6.25 µM; for DIC angularity: 2 h, AMP 12.5, RIF 12.5, TET 6.25, CIP 0.0625, LEI-801 6.25, LEI-800 6.25 µM, average ± SD of 3 replicates; for DAPI intensity / SYTOX Green intensity: standardized to DMSO control
Experimental: Overnight E. coli BW25113 cultures were diluted 1:100 in fresh LB medium in a 100 ml Erlenmeyer flask and incubated at 120 r.p.m. and 37 °C. When OD600 >0.2, the cultures were diluted to OD600 of 0.1 in fresh LB medium with a final volume of 200 µl in a 2 ml Eppendorf tube. The appropriate antibiotic or control treatment was applied and the samples were incubated at 200 r.p.m. and 30 °C for 2 h. Subsequently, 4,6-diamidino-2-phenylindole (DAPI) (2 µg ml^−1), FM4-64 (2 µg ml^−1) and SYTOX Green (0.5 µM) were added to reach the desired concentration and the samples were incubated a further 10 min. The samples were then centrifuged at 3,300g for 50 s and the pellets resuspended in half the original volume. From this suspension, 5 µl was spotted onto a 2.0% agarose pad for microscopy.
Microscopy was performed on a Zeiss Axio Observer Z1/7 inverted microscope.
For the qualitative assessment of the bacterial morphology, the acquired images were first pre-processed in ImageJ (v1.53m)[47]. Thereafter the brightness and contrast were adjusted to allow the clearest visual inspection of the particular phenotype. For the quantitative BCP, DIC images were first pre-processed and then a random forest classifier was trained with Illastik (v1.3.3)[48] to generate a segmented image. These binary masks were then combined together with the original DIC image and processed with the ImageJ plugin MicrobeJ (v 5.13l)[49]. MicrobeJ generated cell outlines and performed measurements on cell shape accordingly. The recorded cell outlines produced by MicrobeJ were exported and used as a guide to characterize the DNA shape within each bacterium using a custom-made ImageJ macro (Appendix II). DAPI and SYTOX Green intensity were measured on raw images in a similar manner. Then, by hand, polygons were drawn that excluded bacteria to determine background intensity. After background correction the intensity was standardized to the DMSO control within the same biological replicate. For PCA, the BCP assay was executed for three independently biological replicates. During each experiment, images were acquired until 24 or more bacteria in total had been observed. Following feature extraction for each replicate, principal component analysis was performed using GraphPad Prism (v9.0.0) using multiple variable analysis with standardized data. Principal components (PCs) were selected based on the per cent of total explained variance (minimum 80%).

[3] = molecular target: T2, E. coli GyrA S172A/GyrB gyrase (Escherichia coli, UniProt P0AES4, S172A); test: Gyrase supercoiling inhibition, GyrA S172A variant; assay type: biochemical
T2 construct: represents the first full-length E. coli gyrase structure in complex with an intact DNA molecule; 10xHis; 2xStrep (Twin-Strep); made in house
Experimental: as §1

[4] = system: E. coli W3110; test: Time-kill assay
Experimental: From glycerol stocks, bacterial strains were cultured on blood agar plates by overnight incubation at 37 °C. Subsequently, a single colony was cultured in TSB overnight at 37 °C. The culture was diluted 100-fold in fresh CAMHB and grown until early exponential phase (OD600 of 0.25) followed by 100-fold dilution in media. The culture was split in separate culture tubes containing 2 ml. […] The supernatant was discarded and pellets were washed once with filter-sterilized PBS, then resuspended in an equal volume of fresh buffer and samples were tenfold serially diluted until a 10^5 dilution. Then, 10 µl of the appropriate dilutions were inoculated on LB agar plates in technical duplicates, subsequently allowed to evaporate and incubated at 37 °C for 18 h. The colonies were counted and used to calculate the colony forming unit (c.f.u.) per ml remaining in the original culture by taking the dilution factors into account. The experiment was performed in biological duplicates.

## O=S(=O)(NC[C@@H]1CC[C@H](c2ccc(-c3cccnc3)cc2)N1)c1cccc2cnccc12 [LEI-800]
[1]
  supercoiling inhibition of GyrA S97L variant: highly resistant
[2]
  PCA clustering of 24 BCP features: formed a cluster by itself
  DAPI aspect ratio: 5.858 ± 1.821
  DAPI circularity: 0.365 ± 0.084
  DAPI nucleoid area: 6.481 ± 2.006
  DAPI nucleoids: 1.368 ± 0.202
  DAPI perimeter: 16.318 ± 5.417
  DAPI roundness: 0.220 ± 0.035
  DAPI solidity: 0.808 ± 0.077
  DAPI total area: 8.438 ± 3.339
  DIC area: 13.636 ± 0.225
  DIC aspect ratio: 6.808 ± 0.283
  DIC circularity: 0.292 ± 0.021
  DIC curvature: 0.034 ± 0.003
  DIC feret: 11.758 ± 0.377
  DIC length: 11.910 ± 0.403
  DIC orientation: 88.418 ± 18.119
  DIC perimeter: 25.156 ± 0.728
  DIC roundness: 0.139 ± 0.012
  DIC sinuosity: 1.021 ± 0.003
  DIC solidity: 0.793 ± 0.033
  DIC width: 1.163 ± 0.063
  Decondensation: 0.616 ± 0.234
  morphological phenotype: elongation of the bacteria and condensation of the DNA; also recorded: phenotype resembling the CIP and TET morphological profile
  DIC angularity: 0.076 ± 0.010
  DAPI intensity: 0.513 ± 0.191
  SYTOX Green intensity: 2.259 ± 1.119
[3]
  IC50: 86 nM
[4]; 4xMIC, 0.5 h, n = 1 and n = 2
  time kill kinetics, bacterial count: 5.021 and 5.23
[4]; 4xMIC, 1 h
  time kill kinetics, bacterial count: 5.061 and 4.929
[4]; 4xMIC, 2 h
  time kill kinetics, bacterial count: 5.041 and 5.176
[4]; 4xMIC, 4 h
  time kill kinetics, bacterial count: 3.061 and 3.243
[4]; 4xMIC, 8 h
  time kill kinetics, bacterial count: 2 and 2.778
[4]; 4xMIC, 24 h
  time kill kinetics, bacterial count: 5.176 and 4.875
[4]; 8xMIC, 0.5 h
  time kill kinetics, bacterial count: 5.243 and 5.021
[4]; 8xMIC, 1 h
  time kill kinetics, bacterial count: 4.431 and 4.732
[4]; 8xMIC, 2 h
  time kill kinetics, bacterial count: 4.903 and 5
[4]; 8xMIC, 4 h
  time kill kinetics, bacterial count: 3.13 and 3.079
[4]; 8xMIC, 8 h
  time kill kinetics, bacterial count: 2.301 and 2
[4]; 8xMIC, 24 h
  time kill kinetics, bacterial count: 1.99
[4]; at higher concentrations
  bactericidal activity: bactericidal

## O=S(=O)(NC[C@H]1CC[C@@H](c2ccc(-c3ccc(F)nc3)cc2)N1)c1cccc2cnccc12 [LEI-801]
[1]
  supercoiling inhibition of GyrA S97L variant: highly resistant
[2]
  PCA clustering of 24 BCP features: clustered with DMSO
  DAPI aspect ratio: 2.179 ± 0.107
  DAPI circularity: 0.723 ± 0.016
  DAPI nucleoid area: 2.366 ± 0.636
  DAPI nucleoids: 1.288 ± 0.064
  DAPI perimeter: 6.375 ± 0.894
  DAPI roundness: 0.484 ± 0.024
  DAPI solidity: 0.916 ± 0.005
  DAPI total area: 2.897 ± 0.869
  DIC area: 3.335 ± 0.139
  DIC aspect ratio: 2.661 ± 0.151
  DIC circularity: 0.699 ± 0.026
  DIC curvature: 0.150 ± 0.018
  DIC feret: 3.227 ± 0.127
  DIC length: 3.253 ± 0.128
  DIC orientation: 96.714 ± 3.816
  DIC perimeter: 7.768 ± 0.245
  DIC roundness: 0.422 ± 0.025
  DIC sinuosity: 1.026 ± 0.005
  DIC solidity: 0.962 ± 0.004
  DIC width: 1.085 ± 0.030
  Decondensation: 0.863 ± 0.226
  morphological phenotype: phenotype that is consistent with the DMSO control
  DIC angularity: 0.123 ± 0.008
  DAPI intensity: 1.156 ± 0.345
  SYTOX Green intensity: 1.000 ± 0.284
[3]
  IC50: 360 nM
